The values below come from patent publication US20230398123A1, “METHODS TO TREAT INFLAMMATORY BOWEL DISEASE” (SHANGHAI PHARMACEUTICALS HOLDING CO., LTD., priority 2021, published 2023).

In general, bioavailability refers to the share of a dose that reaches the circulation, judged against a reference dose that is usually intravenous.

Entries after “also recorded” stand apart in the source; their conditions may differ. Read-outs that look alike come from different tables or passages of the source.

For series [1], the system named is IL-6. Description: IL-6 release from human ulcerative colitis colon mucosal biopsies (SEB-stimulated, multiplex ELISA). The class given is cell-based. The note with it: about 18 hours, 50 ng/mL SEB. In general terms: In an ELISA, binding on a coated surface is turned into a signal by an enzyme label.
The nature of series [2]: Bioavailability in monkeys. The settings on record: monkey, in vivo, oral.
The nature of series [3]: Bioavailability in rats. The settings on record: rat, in vivo, oral.
The subject of series [4] is TNBS-induced colitis in C57BL/6 mice. Description: TNBS-induced colitis in C57BL/6 mice, macroscopic and microscopic colon observations. The class given is in vivo. The note with it: for histology of colon sections (H&E): day 3 after TNBS instillation (FIG. 5B). The source says:
Colitis was induced in C57BL/6 mice by instillation of trinitrobenzene sulfonic acid (TNBS) in the colons according to conventional methods. See Antoniou, et al., Ann. Medicine and Surgery, vol. 11, 9-15 (2016).
FIGS. 5A-B show histological observations of colon sections from C57BL/6 mice. All animals were sacrificed on day 3 after the TNBS instillation to induce colitis as described above, and tissues are visualized by H&E (hematoxylin and eosin) staining.
The second panel in FIG. 5B is tissue from a colon instilled with TNBS and treated with 10 mg/kg SPH-X twice daily, administered intraperitoneally.

In series [5] the test system is TNF-α. Nature of the series: Western blot of TNF-α protein in mucosal lysates, TNBS colitis mice. Type of series: in vivo. The settings on record: 10 mg/kg twice daily for three days, listed as SPH-X. How it is done: To assess the effect of SPH-X in this model at the molecular level, colitis was again induced in mice by TNBS instillation (three per treatment group), using ethanol as a control. Test animals were treated with either vehicle (PBS) or SPH-X (10 mg/kg i.p., twice daily) for three days following the TNBS injury and were then sacrificed. Colonic mucosa were isolated from each test animal and used to prepare mRNA. The mRNA was reverse transcribed to provide cDNAs.
Finally, mucosal lysates from test animals treated as described for the cytokine analysis were prepared and analyzed by Western blot to see how SPH-X affects TNF-α protein levels in the colitis model.
(A western blot detects proteins with antibodies after separation by electrophoresis.)

Series [6] concerns DNBS-induced colitis in Wistar rats. Description: DNBS-induced colitis in Wistar rats. The class given is in vivo. The note with it: day 1-7.
The test system of series [7] is TNF-α. Nature of the series: TNF-α release from human ulcerative colitis colon mucosal biopsies (multiplex ELISA). The settings on record: some UC patients; 10-300 nM. Type of series: cell-based.
Series [8] deals with IL-17A. Description: IL-17A release from human ulcerative colitis colon mucosal biopsies (multiplex ELISA). Type of series: cell-based. The note with it: some UC patients; 10-300 nM.
For series [9] the following is noted: Tekturna (aliskiren) label; cited from earlier work.
Series [10] has as its system TNBS-induced colitis in RenTgMK mice. The settings on record: TNBS instillation, aliskiren by intraperitoneal injection; cited from earlier work.
[11] abbreviates: UC Donor C, Formula (I) malate salt 10-300 nM, Birb 796 1 μM.

Consider `Cc1ccc(-n2nc(C(C)(C)C)cc2NC(=O)Nc2ccc(OCCN3CCOCC3)c3ccccc23)cc1` [Birb 796, reference compound], for which the IL-6 production entry in [1] (setting [11]) was “reduction of IL-6”.
As for `COC(=O)NCCCn1nc([C@@H](C)N(C(=O)C2CNCCO2)C2CC2)c2ccc(C)nc21` (stereo partly drawn) [Formula (I)], the bioavailability in series [2] was 3.3 to 11.3%; in series [3], 11.5 to 24.5%.
`COC(=O)NCCCn1nc([C@@H](C)N(C(=O)C2CNCCO2)C2CC2)c2ccc(C)nc21.O=C(O)C[C@H](O)C(=O)O` (stereo partly drawn) [Formula I malate salt]: the “histology of colon sections (H&E)” value in series [4] (5 mg/kg BID, listed as SPH-X) is “substantially prevents or treats any injury caused by TNBS instillation; also recorded: treats or prevents such damage”; in series [4] (10 mg/kg twice daily intraperitoneally, listed as SPH-X) it was “substantially protects the colon from injury caused by TNBS; also recorded: treats or prevents such damage”. In addition, the “interior of colons dissected longitudinally (bleeding at the distal ends)” value in [4] (10 mg/kg intraperitoneally after TNBS instillation (FIG. 4B)) is recorded as “do not show such damage”. Moreover, the “gross morphology of colons” value in series [4] (20 mg/kg BID intraperitoneal, 7 days after TNBS instillation (FIG. 4A), listed as SPH-X) is given as “appear more normal; also recorded: substantially reverses damage caused by TNBS”. For the same compound, the “TNF-α protein level (Western blot)” value in series [5] is “no TNF-α protein was seen; also recorded: reduces or stops formation of TNF-α”. Besides, the IL-6 production result in [1] (setting [11]) is listed as “does not show reduction in IL-6”; in series [1] (UC Donors A and B, 10-300 nM) it was “significant dose-related decreases”. The colon length result in [6] (30 mg/kg q.d. p.o.) is given as “significantly increased colon length”. Moreover, the “release of tumor necrosis factor alpha (TNF-α)” value in [7] is on record as “dose-related reductions”. The “release of IL-17A” value in series [8] is on record as “dose-related reductions”.
`C[C@@H]1CCN(C(=O)CC#N)C[C@@H]1N(C)c1ncnc2[nH]ccc12` [Tofacitinib]: in series [6] (30 mg/kg BID p.o.), the “CW/BW ratio improved by” value was found to be 9%, the “CW/CL ratio improved by” value came to 37% and the “CW/CL/BW ratio improved by” value turned out to be 14%.
With `COCCCOc1cc(C[C@@H](C[C@H](N)[C@@H](O)C[C@H](C(=O)NCC(C)(C)C(N)=O)C(C)C)C(C)C)ccc1OC` [aliskiren], the bioavailability in [9] is reported as 2.5%. The “effect on induced colitis” value in [10] was “ameliorated this induced colitis”.
